Here are results for 17 compounds from patent US8017612B2, “Piperazine compound and use thereof as a HCV polymerase inhibitor” (priority 2006, dated 2011).

Experiment [1] has as its target T1, HCV polymerase (NS5B) type 1b (Hepatitis C virus genotype 1b, UniProt P26663).
T1 construct: a region encoding NS5B (J Virol 1991 March, 65(3), 1105-13, 544 amino acids after deletion of 47 amino acids on the C-terminal); 6xHis (C); made in house; host or cells: Escherichia coli
Description: Assay of enzyme (HCV polymerase) inhibitory activity, type 1b enzyme. In kind it is biochemical, HCV BK strain (type 1b). Conditions: HCV polymerase inhibitory activity IC50, 1b, type 1b enzyme. An outline of the steps:
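Polymerase activity was followed as radiolabelled UTP incorporation by E. coli-expressed, His-tagged NS5B of HCV type 1b lacking its last 47 residues. Conditions: 2 μM UTP, 50 μM other NTPs, Mg2+ buffer at pH 7.5, 25 °C for 60 min. Inhibition relative to compound-free reactions gave IC50.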

The target in experiment [2] is T2, HCV polymerase (NS5B) type 1a (Hepatitis C virus genotype 1a, UniProt P26664).
T2 construct: made in house; host or cells: Escherichia coli (by the 'similar method' of the 1b enzyme)
Kind of experiment: Assay of enzyme (HCV polymerase) inhibitory activity, type 1a enzyme. It counts as biochemical, HCV type 1a (cloned from the blood of patients). The note with it: HCV polymerase inhibitory activity IC50, 1a, type 1a enzyme. An outline of the steps:
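IC50 values derive from radioactivity of newly synthesized RNA with versus without test compound. The enzyme was C-terminally truncated type 1a NS5B, 1.5 μg/ml, run 60 min at 25° C with 3H-UTP-labelled nucleotides.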

By IC50 is commonly meant the midpoint of a concentration-inhibition curve. Read a high IC50 as weaker potency in that assay. In the case of `O=C(NCc1ccc(OC(F)(F)F)cc1)[C@H]1CN(c2nc3nc(O)ncc3s2)CCN1S(=O)(=O)c1ccc(OC(F)(F)F)cc1` [Example 878, (R)-4-(5-hydroxy-thiazolo[4,5-d]pyrimidin-2-yl)-1-(4-trifluoromethoxy-benzenesulfonyl)-piperazine-2-carboxylic acid 4-trifluoromethoxy-benzylamide], the IC50 in experiment [1] and in experiment [2] was less than 100 nM each time.

Take `O=C(NCc1ccc(OC(F)(F)F)cc1)[C@H]1CN(c2nc3cnncc3s2)CCN1S(=O)(=O)c1ccc(OC(F)(F)F)cc1` [Example 879, (R)-4-thiazolo[4,5-d]pyridazin-2-yl-1-(4-trifluoromethoxy-benzenesulfonyl)-piperazine-2-carboxylic acid 4-trifluoromethoxy-benzylamide]: the IC50 in experiment [1] and in experiment [2] was less than 100 nM each time.

For the compound `CCCc1ccc(CNC(=O)[C@H]2CN(c3nc4c(C(=O)OCC)nnc(Cl)c4s3)CCN2S(=O)(=O)c2ccc(CC)cc2)cc1` [Example 880, 7-chloro-2-[(R)-4-(4-ethyl-benzenesulfonyl)-3-(4-propyl-benzylcarbamoyl)-piperazin-1-yl]-thiazolo[4,5-d]pyridazine-4-carboxylic acid ethyl ester], the IC50 in experiment [1] and in experiment [2] was less than 100 nM each time.

With `O=C(NCc1ccc(OC(F)(F)F)cc1)[C@H]1CN(c2nc3cn[nH]c(=O)c3s2)CCN1S(=O)(=O)c1ccc(Br)cc1` [Example 881, (R)-1-(4-bromo-benzenesulfonyl)-4-(7-oxo-6,7-dihydro-thiazolo[4,5-d]pyridazin-2-yl)-piperazine-2-carboxylic acid 4-trifluoromethoxy-benzylamide], the IC50 in experiment [1] and in experiment [2] was less than 100 nM throughout.

Take `COCC1(c2ccc(CNC(=O)[C@H]3CN(c4nc5cn[nH]c(=O)c5s4)CCN3S(=O)(=O)c3ccc(OC(F)(F)F)cc3)cc2)CC1` [Example 882, (R)-4-(7-oxo-6,7-dihydro-thiazolo[4,5-d]pyridazin-2-yl)-1-(4-trifluoromethoxy-benzenesulfonyl)-piperazine-2-carboxylic acid 4-(1-methoxymethyl-cyclopropyl)-benzylamide]: the values for the IC50 in experiment [1] and in experiment [2] were less than 100 nM and 100 to 1000 nM, respectively.

Turning to `CCN(C)c1ccc(CNC(=O)[C@H]2CN(c3nc4cn[nH]c(=O)c4s3)CCN2S(=O)(=O)c2ccc(OC(F)(F)F)cc2)cc1` [Example 883, (R)-4-(7-oxo-6,7-dihydro-thiazolo[4,5-d]pyridazin-2-yl)-1-(4-trifluoromethoxy-benzenesulfonyl)-piperazine-2-carboxylic acid 4-(ethyl-methyl-amino)-benzylamide], the 50% inhibitory concentration (IC50) in experiment [1] and in experiment [2] was less than 100 nM in each case.

In the case of `COc1ccc(S(=O)(=O)N2CCN(c3nc4cn[nH]c(=O)c4s3)C[C@@H]2C(=O)NCc2ccc(OC(F)(F)F)cc2)cc1` [Example 884, (R)-1-(4-methoxy-benzenesulfonyl)-4-(7-oxo-6,7-dihydro-thiazolo[4,5-d]pyridazin-2-yl)-piperazine-2-carboxylic acid 4-trifluoromethoxy-benzylamide], the half-inhibitory concentration (IC50) in experiment [1] and in experiment [2] was less than 100 nM throughout.

Regarding `O=C(NCc1ccc(OC(F)(F)F)cc1)[C@H]1CN(c2nc3cncnc3s2)CCN1S(=O)(=O)c1ccc(OC(F)(F)F)cc1` [Example 885, (R)-4-thiazolo[5,4-d]pyrimidin-2-yl-1-(4-trifluoromethoxy-benzenesulfonyl)-piperazine-2-carboxylic acid 4-trifluoromethoxy-benzylamide], the IC50 in experiment [1] and in experiment [2] was less than 100 nM throughout.

For `O=C(NCc1ccc(OC(F)(F)F)cc1)[C@H]1CN(c2nc3ncncc3s2)CCN1S(=O)(=O)c1ccc(C(F)(F)F)cc1` [Example 886, (R)-4-thiazolo[4,5-d]pyrimidin-2-yl-1-(4-trifluoromethyl-benzenesulfonyl)-piperazine-2-carboxylic acid 4-trifluoromethoxy-benzylamide], the 50% inhibitory concentration (IC50) in experiment [1] and in experiment [2] was less than 100 nM throughout.

Turning to `O=C(NCc1ccc(OC(F)(F)F)cc1)[C@H]1CN(c2nc3nc(Cl)ncc3s2)CCN1S(=O)(=O)c1ccc(C(F)(F)F)cc1` [Example 887, (R)-4-(5-chloro-thiazolo[4,5-d]pyrimidin-2-yl)-1-(4-trifluoromethyl-benzenesulfonyl)-piperazine-2-carboxylic acid 4-trifluoromethoxy-benzylamide], the IC50 in experiment [1] and in experiment [2] was less than 100 nM in each case.

For `O=C(NCc1ccc(OC(F)(F)F)cc1)[C@H]1CN(c2nc3nc(O)nc(O)c3s2)CCN1S(=O)(=O)c1ccc(OC(F)(F)F)cc1` [Example 888, (R)-4-(5,7-dihydroxy-thiazolo[4,5-d]pyrimidin-2-yl)-1-(4-trifluoromethoxy-benzenesulfonyl)-piperazine-2-carboxylic acid 4-trifluoromethoxy-benzylamide], the IC50 in experiment [1] and in experiment [2] was less than 100 nM in each case.

Consider `CCCc1ccc(CNC(=O)[C@H]2CN(c3ccc(C(=O)O)c(F)c3)CCN2S(=O)(=O)c2ccc(CC)cc2)cc1` [Example 889, 4-[(R)-4-(4-ethyl-benzenesulfonyl)-3-(4-propyl-benzylcarbamoyl)-piperazin-1-yl]-2-fluoro-benzoic acid], for which the IC50 in experiment [1] and in experiment [2] was greater than 1000 nM each time.

Turning to `CCC(C)(C)c1ccc(CNC(=O)[C@H]2CN(c3nc(Cl)c(C(=O)O)s3)CCN2S(=O)(=O)c2ccc(OC(F)(F)F)cc2)cc1` [Example 890, 4-chloro-2-[(R)-3-[4-(1,1-dimethyl-propyl)-benzylcarbamoyl]-4-(4-trifluoromethoxy-benzenesulfonyl)-piperazin-1-yl]-thiazole-5-carboxylic acid], the 50% inhibitory concentration (IC50) in experiment [1] and in experiment [2] was less than 100 nM in each case.

For `CCCc1ccc(CNC(=O)[C@H]2CN(c3nc4c(C(=O)OCC)nncc4s3)CCN2S(=O)(=O)c2ccc(CC)cc2)cc1` [Example 891, 2-[(R)-4-(4-ethyl-benzenesulfonyl)-3-(4-propyl-benzylcarbamoyl)-piperazin-1-yl]-thiazolo[4,5-d]pyridazine-4-carboxylic acid ethyl ester], the IC50 in experiment [1] and in experiment [2] was less than 100 nM each time.

Turning to `CCCc1ccc(CNC(=O)[C@H]2CN(c3nc4c(C(=O)O)nncc4s3)CCN2S(=O)(=O)c2ccc(CC)cc2)cc1` [Example 892, 2-[(R)-4-(4-ethyl-benzenesulfonyl)-3-(4-propyl-benzylcarbamoyl)-piperazin-1-yl]-thiazolo[4,5-d]pyridazine-4-carboxylic acid], the IC50 in experiment [1] and in experiment [2] was less than 100 nM throughout.

For the compound `Cc1n[nH]c(=O)c2sc(N3CCN(S(=O)(=O)c4ccc(C(F)(F)F)cc4)[C@@H](C(=O)NCc4ccc(OC(F)(F)F)cc4)C3)nc12` [Example 893, (R)-4-(4-methyl-7-oxo-6,7-dihydro-thiazolo[4,5-d]pyridazin-2-yl)-1-(4-trifluoromethyl-benzenesulfonyl)-piperazine-2-carboxylic acid 4-trifluoromethoxy-benzylamide], the half-maximal inhibitory concentration (IC50) in experiment [1] and in experiment [2] was less than 100 nM throughout.

Regarding `CCC(F)(F)c1ccc(CNC(=O)[C@H]2CN(c3nc4ncncc4s3)CCN2S(=O)(=O)c2ccc(OC(F)(F)F)cc2)cc1` [Example 894, (R)-4-thiazolo[4,5-d]pyrimidin-2-yl-1-(4-trifluoromethoxy-benzenesulfonyl)-piperazine-2-carboxylic acid 4-(1,1-difluoro-propyl)-benzylamide], the IC50 in experiment [1] and in experiment [2] was less than 100 nM throughout.
